Results on four compounds are retold here after patent publication US8389739B1, “Modulators of retinoid-related orphan receptor gamma” (Orphagen Pharmaceuticals, priority 2006, dated 2013).

Molecules are shown by their SMILES.

What all share (assay type): cell-based
The target in one assay is T1, RORα (mRORα) (Mus musculus, UniProt P51448).
T1 construct: mRORα (NR1F1, aa 266-523); expressed in transfected cells; host or cells: CHO cells, transient transfection
Briefly: Transcriptional assay of RORα as GAL4 hybrid. As to conditions: same format as the GAL4-RORγ assay. The method, then: (§1) This example also describes several additional tests that were commonly performed to confirm the authenticity of a hit to RORγ. These tests also verified the validity of the transcriptional and biochemical assays used. […] In some cases, close analogs of a confirmed hit were obtained by synthesis or purchase from a commercial source. The series of compounds related to the confirmed hit was then tested in the biochemical and transcriptional assays. The rank order of the potency of the compounds was then compared. […] The data imply in turn that the compounds are binding to the same binding pocket. […]
(§2) Four hours after transfection, cells were dislodged with trypsin and seeded into a 384-well plate at 8,000 cells/well using a Titertek Multidrop 384. […] After incubation for 2 hours at 37 degrees centigrade, the conversion of resazurin to resorufin was measured by fluorescence (excitation at 570 nm and emission at 615 nm). […] Percent viability was determined as 2 hour fluorescence, minus background at t=0 hours, normalized to DMSO controls. […] Luminescence is detected with a Victor 2-V plate reader (Perkin-Elmer) and normalized to luciferase activity of DMSO control wells alone.

Another assay deals with T2, RORβ (human RORβ) (Homo sapiens, UniProt Q92753).
T2 construct: human RORβ (NR1F2, aa 201-459); expressed in transfected cells; host or cells: CHO cells, transient transfection
Briefly: Transcriptional assay of RORβ as GAL4 hybrid. As to conditions: same format as the GAL4-RORγ assay. The method, then:
as §1, §2

Assay [1] concerns IL-17 release and TH-17 cells in lymph node cultures. Briefly: Lymph node cell cultures from PLP-immunized SJL/J mice, IL-17 ELISA and Th-17 FACS. The method, then:
FIGS. 13A-F. IL-17 levels in lymph node cells from mice immunized with myelin-derived peptides respond to cognate peptide antigens, IL-23 and RORγ ligands. (FIG. 13A) SJL/J mice were immunized by complete Freund's adjuvant (CFA) only or by Proteolipid Protein residues 139-151 (PLP139-151) emulsified in CFA. Lymph nodes were cultured for 3 days in with or without 40 μg/ml PLP in the presence or absence of OR-885. Culture media were analyzed by ELISA for IL-17. (FIGS. 13B-C) Lymph node cells from PLP-immunized SJL/J mice were cultured as before with the addition of 10 ng/ml IL-23 and 3 μM compounds. At the end of 1 day or 3 days in culture, Th-17 (CD4^+CD8^−IL17^+) cell frequency was measured by FACS (FIG. 13B) and compared to IL-17 levels in culture media (FIG. 13C). (FIGS. 13D-F) Lymph node cells from MOG35-55 immunized C57BL/6 mice were cultured for 3 days with 30 μg/ml MOG and/or 10 ng/ml IL-23. RORγ ligands were not added (FIG. 13D), or added at the beginning of the culture at a single concentration (FIG. 13E, 1 μM) or in multiple doses (FIG. 13F).
FIG. 14. Inhibition of IL-17 release in mouse lymph node cultures by the RORγ antagonist OR-885 can be reversed by the RORγ agonist OR-12872. The lymph node cells were culture in the presence of 10 ng/mL IL-23 and 40 μg/mL PLP for three days under identical conditions to FIG. 13 and IL-17 in the culture supernatant was measured by ELISA.
ELISA kits for mouse IL-17 and human IL-17 were from eBioscience (San Diego, Calif.). ELISA assays were performed following the manufacturer's protocol. Certain samples were diluted 20-fold to avoid maximization of enzymatic signals. For mouse IL-22 ELISA, antibodies and standards were from Antigenix America (Huntington Station, N.Y.) and accessory components were from eBioscience. The IL-22 assay protocol was similar to that of the IL-17 assays. […]
For orientation: ELISA stands for enzyme-linked immunosorbent assay.

T1 sequence (P51448 266-523): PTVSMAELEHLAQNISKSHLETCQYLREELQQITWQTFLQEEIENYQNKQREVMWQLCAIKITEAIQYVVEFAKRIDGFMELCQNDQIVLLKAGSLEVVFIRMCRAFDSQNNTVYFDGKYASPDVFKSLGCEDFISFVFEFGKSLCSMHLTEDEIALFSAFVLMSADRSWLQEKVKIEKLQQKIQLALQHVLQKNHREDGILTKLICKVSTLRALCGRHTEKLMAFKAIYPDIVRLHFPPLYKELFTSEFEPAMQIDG
T2 sequence (Q92753 212-470): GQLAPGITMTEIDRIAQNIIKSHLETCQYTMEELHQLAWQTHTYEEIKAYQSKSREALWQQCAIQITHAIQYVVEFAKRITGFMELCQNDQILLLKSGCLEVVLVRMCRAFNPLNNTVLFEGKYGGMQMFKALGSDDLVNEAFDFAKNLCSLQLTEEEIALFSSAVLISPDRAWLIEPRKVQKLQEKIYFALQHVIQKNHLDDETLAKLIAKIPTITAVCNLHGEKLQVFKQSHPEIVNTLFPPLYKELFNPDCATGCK

Regarding `O=S(=O)(c1ccccc1)N(CC(F)(F)F)c1ccc(C(O)(C(F)(F)F)C(F)(F)F)cc1` [Compound T0901317, N-(2,2,2-Trifluoro-ethyl)-N-[4-(2,2,2-trifluoro-1-hydroxy-1-trifluoromethyl-ethyl)-phenyl]-benzenesulfonamide, reference compound], at RORα (mRORα), the “effect on the transcription of RORα” value is recorded as “no effects”. The “effect on the transcription of RORβ” value at RORβ (human RORβ) is given as “no effects”.
Take `CCN(c1ccc(C(O)(C(F)(F)F)C(F)(F)F)cc1)S(=O)(=O)c1ccc([N+](=O)[O-])cc1` [OR-1050, N-Ethyl-4-nitro-N-[4-(2,2,2-trifluoro-1-hydroxy-1-trifluoromethyl-ethyl)-phenyl]-benzenesulfonamide]: the “effect on the transcription of RORα” value at RORα (mRORα) is on record as “no effects”. The “effect on the transcription of RORβ” value on RORβ (human RORβ) is recorded as “no effects”.
On to `COC(C)CCC(C)C1CCC2C3CC(O)C4CC(O)CCC4(C)C3CCC12C` (stereo not shown) [OR-12872, 17-(4-Methoxy-1-methyl-pentyl)-10,13-dimethyl-hexadecahydro-cyclopenta[a]phenanthrene-3,6-diol], for which, in assay [1] (10 ng/mL IL-23 and 40 μg/mL PLP, three days (FIG. 14)), the “reversal of antagonist suppression of IL-17 release” value was “reverses the suppressive effects of OR-885 on IL-17 release”.
As for `C[C@@H]1CC[C@@]2(OC1)O[C@H]1C[C@H]3[C@@H]4CC[C@H]5C[C@@H](O)CC[C@]5(C)[C@H]4C[C@@H](O)[C@]3(C)[C@H]1[C@@H]2C` [OR-885, 5α,20α, 22α, 25D-SPIROSTAN-3β, 12β-DIOL], in assay [1] (PLP, 10 ng/ml IL-23, 3 μM compounds (FIG. 13B)), the “induction of TH-17 cells (as a percentage of total live cells)” value is reported as “block”. Also, the “PLP-stimulated release of IL-17” value in assay [1] (lymph node cultures, 40 μg/ml PLP, 3 days) is given as “inhibited”.
